The text below walks through data of ChEMBL document CHEMBL1156328, “Synthesis of cycloalkane-annelated 3-phenylsulfonyl-pyrazolo[1,5-a]pyrimidines and their evaluation as 5-HT6 receptor antagonists” (Bioorg Med Chem Lett, 2010).

Each structure is given as a SMILES string. The source made the active and inactive calls. The rule behind the calls is not given here.

Data set [1] has as its target T1, 5-hydroxytryptamine receptor 2B (Homo sapiens, UniProt P41595). Put plainly: Agonist activity at human 5HT2B receptor in HEK293 cells assessed as stimulation of intracellular calcium mobilization by Fura-2AM dye based spectrofluorimetry. (In general: Calcium flux is commonly read through the fluorescence of an indicator in the cells.)
The target in data set [2] is T1, 5-hydroxytryptamine receptor 2B. The data set is described as follows: Antagonist activity at human 5HT2B receptor in HEK293 cells assessed as inhibition of alpha-ME-5-HT-induced intracellular calcium mobilization pretreated for 15 secs before alphaME-5-HT addition by Fura-2AM dye based spectrofluorimetry.
Data set [3] deals with 5-hydroxytryptamine receptor 6 (Homo sapiens, UniProt P50406). The data set is described as follows: Antagonist activity at human 5HT6 receptor in HEK293 cells assessed as inhibition of serotonin-induced cAMP accumulation pretreated for 15 mins before serotonin challenge measured after 30 mins. The format is functional, cell-based. A general note: cAMP levels reflect the balance of adenylyl cyclase and phosphodiesterase activity.

For another data set, the target named is hERG (KCNH2) (Homo sapiens, UniProt Q12809). Put plainly: Inhibition of human recombinant ERG at 10 uM by patch clamp assay. Particulars: recombinant human ERG channel.
Sequence of hERG (KCNH2) (Q12809 whole entry): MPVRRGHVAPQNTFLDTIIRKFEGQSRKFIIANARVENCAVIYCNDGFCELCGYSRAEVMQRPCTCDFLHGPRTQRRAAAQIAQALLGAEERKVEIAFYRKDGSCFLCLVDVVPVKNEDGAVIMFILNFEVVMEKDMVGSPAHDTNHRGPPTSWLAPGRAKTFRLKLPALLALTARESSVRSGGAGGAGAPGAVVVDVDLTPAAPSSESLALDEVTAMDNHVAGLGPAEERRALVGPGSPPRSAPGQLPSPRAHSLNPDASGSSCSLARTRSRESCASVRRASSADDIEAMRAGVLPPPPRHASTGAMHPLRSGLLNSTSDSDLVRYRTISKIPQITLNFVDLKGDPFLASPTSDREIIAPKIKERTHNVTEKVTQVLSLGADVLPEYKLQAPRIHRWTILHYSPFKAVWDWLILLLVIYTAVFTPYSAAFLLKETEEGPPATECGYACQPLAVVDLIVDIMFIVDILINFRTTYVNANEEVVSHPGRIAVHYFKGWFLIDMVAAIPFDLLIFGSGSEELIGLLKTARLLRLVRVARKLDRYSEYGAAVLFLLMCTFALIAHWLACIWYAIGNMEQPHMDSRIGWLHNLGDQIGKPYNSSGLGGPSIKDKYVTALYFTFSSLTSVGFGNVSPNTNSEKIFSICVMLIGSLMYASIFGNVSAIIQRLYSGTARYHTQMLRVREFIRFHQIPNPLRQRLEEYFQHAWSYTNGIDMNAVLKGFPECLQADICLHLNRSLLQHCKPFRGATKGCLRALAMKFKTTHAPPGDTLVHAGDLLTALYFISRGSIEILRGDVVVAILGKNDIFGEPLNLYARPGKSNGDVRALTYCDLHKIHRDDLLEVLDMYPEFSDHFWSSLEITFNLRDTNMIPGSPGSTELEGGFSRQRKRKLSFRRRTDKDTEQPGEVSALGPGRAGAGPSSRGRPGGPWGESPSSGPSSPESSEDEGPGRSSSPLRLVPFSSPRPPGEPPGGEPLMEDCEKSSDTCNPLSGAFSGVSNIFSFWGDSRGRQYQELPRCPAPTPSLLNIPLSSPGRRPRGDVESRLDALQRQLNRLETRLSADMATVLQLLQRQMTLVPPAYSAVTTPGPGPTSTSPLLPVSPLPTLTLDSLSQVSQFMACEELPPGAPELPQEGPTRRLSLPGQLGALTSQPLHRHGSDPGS

Sequence of 5-hydroxytryptamine receptor 6 (P50406 whole entry): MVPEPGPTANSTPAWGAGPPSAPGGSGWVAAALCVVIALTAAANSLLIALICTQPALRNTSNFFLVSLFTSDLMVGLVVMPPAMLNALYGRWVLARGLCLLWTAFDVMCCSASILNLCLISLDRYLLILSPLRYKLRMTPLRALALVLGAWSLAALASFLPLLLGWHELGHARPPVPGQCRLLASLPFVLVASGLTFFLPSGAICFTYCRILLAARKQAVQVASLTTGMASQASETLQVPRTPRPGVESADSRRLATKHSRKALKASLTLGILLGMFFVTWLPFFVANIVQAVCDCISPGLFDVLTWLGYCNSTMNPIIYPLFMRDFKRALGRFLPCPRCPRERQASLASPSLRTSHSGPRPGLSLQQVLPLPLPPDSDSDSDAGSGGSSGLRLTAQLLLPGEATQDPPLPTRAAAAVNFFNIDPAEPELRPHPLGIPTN
T1 sequence (P41595 whole entry): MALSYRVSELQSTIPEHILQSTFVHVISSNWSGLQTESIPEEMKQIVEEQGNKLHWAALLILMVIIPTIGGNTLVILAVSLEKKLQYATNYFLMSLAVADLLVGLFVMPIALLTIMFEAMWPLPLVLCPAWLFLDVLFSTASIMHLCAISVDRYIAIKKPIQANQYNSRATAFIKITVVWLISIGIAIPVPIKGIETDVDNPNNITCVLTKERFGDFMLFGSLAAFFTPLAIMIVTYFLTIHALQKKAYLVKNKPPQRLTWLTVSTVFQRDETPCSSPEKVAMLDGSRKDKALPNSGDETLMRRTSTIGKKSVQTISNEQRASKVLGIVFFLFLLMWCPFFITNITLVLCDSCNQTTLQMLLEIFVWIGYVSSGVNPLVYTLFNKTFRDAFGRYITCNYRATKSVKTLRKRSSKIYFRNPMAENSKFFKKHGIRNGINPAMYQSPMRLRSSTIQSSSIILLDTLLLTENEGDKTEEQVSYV

Consider `CSc1nn2c3c(cnc2c1S(=O)(=O)c1ccccc1)CCCC3`, for which the result in data set [1] was inactive. The results for the half-maximal inhibitory concentration (IC50) in data set [2] and in data set [3] were 411 nM and 7.5 nM, respectively.
As for `CSc1nn2c3c(cnc2c1S(=O)(=O)c1ccccc1)CCC3`, the result in data set [1] was inactive. The IC50 (as a rule, the point on the concentration scale where inhibition reaches its midpoint) in data set [2] was 118 nM; in data set [3], 6 nM.
Take `CSc1nn2cc3c(nc2c1S(=O)(=O)c1ccccc1)CCCC3`: the IC50 in data set [3] stood at 98.5 nM.
Take `CSc1nn2c(C)c3c(nc2c1S(=O)(=O)c1ccccc1)CCCC3`: in data set [1], the outcome was inactive. The half-maximal inhibitory concentration (IC50) in data set [2] was 127 nM. Besides, the inhibition (as a rule, the relative decrease from the control value, in per cent) at 10 µM at hERG (KCNH2) amounted to 25%.
Turning to `CSc1nn2c3c(c(C)nc2c1S(=O)(=O)c1ccccc1)CCCC3`, the result in data set [1] was inactive. Also, the IC50 in data set [2] was 161 nM; in data set [3], 16.8 nM.
